“Also recorded” adds a separate entry of the source. Like-named read-outs stand apart in the source and are kept apart here.
How the values were obtained:
Format in all cases: cell-based
[1] = target: T1, parathyroid cell calcium receptor (Bos taurus, UniProt P35384); test: cell-based; conditions: for EC50: increases in intracellular calcium, fura-2 loaded cells; for relative potency, in words: parathyroid cells; for effect on mobilization elicited by extracellular divalent cations / effect on [Ca2+]i at low extracellular Ca2+: 100 μM; for effect on [Ca2+]i at low extracellular Ca2+: 0.5 mM extracellular Ca2+
T1 sequence (P35384 20-1085): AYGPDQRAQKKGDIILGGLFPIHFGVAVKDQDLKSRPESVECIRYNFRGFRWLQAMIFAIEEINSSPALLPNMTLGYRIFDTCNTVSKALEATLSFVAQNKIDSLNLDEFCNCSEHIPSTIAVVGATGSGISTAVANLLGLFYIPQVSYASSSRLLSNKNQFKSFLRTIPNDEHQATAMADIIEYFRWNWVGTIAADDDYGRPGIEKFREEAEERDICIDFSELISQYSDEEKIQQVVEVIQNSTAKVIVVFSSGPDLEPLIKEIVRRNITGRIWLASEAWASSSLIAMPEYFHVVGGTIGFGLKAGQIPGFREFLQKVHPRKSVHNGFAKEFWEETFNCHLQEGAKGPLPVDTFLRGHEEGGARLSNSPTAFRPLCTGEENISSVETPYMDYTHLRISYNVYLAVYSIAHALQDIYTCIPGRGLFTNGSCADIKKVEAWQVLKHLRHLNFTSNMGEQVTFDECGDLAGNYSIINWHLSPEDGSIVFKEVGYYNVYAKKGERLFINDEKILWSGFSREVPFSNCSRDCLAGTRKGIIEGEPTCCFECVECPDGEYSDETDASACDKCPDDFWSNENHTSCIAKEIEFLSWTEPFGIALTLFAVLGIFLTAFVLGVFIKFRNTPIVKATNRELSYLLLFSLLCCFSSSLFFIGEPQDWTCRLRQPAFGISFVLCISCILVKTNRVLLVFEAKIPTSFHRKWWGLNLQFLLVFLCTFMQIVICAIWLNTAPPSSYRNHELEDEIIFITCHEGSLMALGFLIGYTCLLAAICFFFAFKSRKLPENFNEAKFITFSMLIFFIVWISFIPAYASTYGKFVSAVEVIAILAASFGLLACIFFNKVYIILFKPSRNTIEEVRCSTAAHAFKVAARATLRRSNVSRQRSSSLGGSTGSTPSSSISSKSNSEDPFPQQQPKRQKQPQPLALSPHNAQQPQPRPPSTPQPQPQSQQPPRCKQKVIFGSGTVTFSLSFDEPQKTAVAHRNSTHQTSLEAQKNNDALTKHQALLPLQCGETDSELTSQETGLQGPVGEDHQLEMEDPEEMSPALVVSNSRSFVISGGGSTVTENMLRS
Procedure: For example,. bovine parathyroid cells loaded with fura-2 are initially suspended in buffer containing 0.5 mM CaCl2. A test substance is added to the cuvette in a small volume (5-15 μl) and changes in the fluorescence signal are measured. Cumulative increases in the concentration of the test substance are made in the cuvette until some predetermined concentration is achieved or no further changes in fluorescence are noted.
Human parathyroid glands, were obtained from patients undergoing surgical removal of parathyroid tissue for primary or uremic hyperparathyroidism (uremic HPT), and were treated similarly to bovine tissue.
The cells were then pelleted, resuspended in the same buffer, but lacking the ester, and incubated a further 15 minutes at 37° C. The cells were subsequently washed twice with PCB containing 0.5 mM CaCl2 and 0.5% BSA and maintained at room temperature (about 20° C.). Immediately before use, the cells were diluted five-fold with prewarmed 0.5 mM CaCl2 -PCB to obtain a final BSA concentration of 0.1%. The concentration of cells in the cuvette used for fluorescence recording was 1-2×10^6 /ml.
The fluorescence of indicator-loaded cells was measured at 37° C. in a spectrofluorimeter (Biomedical Instrumentation Group, University of Pennsylvania, Philadelphia, Pa.) equipped with a thermostated cuvette holder and magnetic stirrer using excitation and emission wavelengths of 340 and 510 nm, respectively. […] Leakage of dye is dependent on temperature and most occurs within the first 2 minutes after warming the cells in the cuvette. Dye leakage increases only very slowly thereafter. To correct the calibration for dye leakage, cells were placed in the cuvette and stirred at 37° C. for 2-3 minutes. The cell suspension was then removed, the cells pelleted, and the supernatant returned to a clean cuvette. […] This estimate was subtracted from the apparent Fmin.

[2] = target: T2, bovine parathyroid cell calcium receptor (Bos taurus, UniProt P35384); test: Cl- current in Xenopus oocytes expressing BoPCaR 1; conditions: for effect on inward currents: EGTA 100 μM, 9AC, A23187
T2 construct: expressed in transfected cells; host or cells: Xenopus laevis oocytes injected with BoPCaR 1 cRNA
T2 sequence (P35384 20-1085): T1 sequence (P35384 20-1085)
Procedure: Several pharmacological and biochemical criteria were used to identify this clone as encoding a bona fide bovine parathyroid Ca^2+ receptor. […] These responses increased markedly over a period of one to four days after injection of the eggs with cRNA prepared from the BoPCaR 1 cDNA. Furthermore, the ranges of the concentrations of the two cations eliciting this response were very similar to those shown previously to act on bovine parathyroid cells in vitro.
Xenopus oocytes were injected with BoPCaR 1, the 5.3 Kb cDNA encoding a bovine parathyroid cell calcium receptor as described in Example 25. After two to three days, Cl^- currents were examined in the oocytes using a two-electrode voltage clamp.
Xenopus oocytes were injected with BoPCaR 1 as described in Example 25. After two to three days, Cl^- currents were examined in the oocytes using two electrode voltage clamp.

[3] = test system: Ca2+ influx in parathyroid cells; test: Ca2+ influx in bovine parathyroid cells; conditions: for effect on [Ca2+]i: 100 to 1000 μM, 2 mM CaCl2; for effect on extracellular Ca2+-elicited increases in [Ca2+]i: pretreatment

## COc1cccc([C@@H](C)N[C@H](C)c2cccc3ccccc23)c1 [Compound 14Y]
[1]; Table 8
  EC50: 0.38 µM

## NCCNCCNCCN [Triethylenetramine (TETA), triethylenetetramine]
[1]
  effect on [Ca2+]i: mobilize intracellular Ca^2+

## O=C(O)CN(CCOCCOCCN(CC(=O)O)CC(=O)O)CC(=O)O [EGTA]
[2]
  effect on inward currents: prevents oocytes expressing the calcium receptor from responding

## N=C(N)NCCC[C@H](N)C(=O)NCCCNCCCNCCCCCNC(=O)[C@H](CC(N)=O)NC(=O)Cc1c[nH]c2cccc(O)c12 [Argiotoxin-659]
[1]; 100 to 300 μM
  effect on [Ca2+]i: evoked transient increases in [Ca^2+ ]i

## COc1cccc([C@H](C)NCCCc2ccccc2Cl)c1 [NPS S-568]
[2]; BoPCaR 1-injected oocytes, only at much higher concentrations
  concentration eliciting responses: 100 µM

## NCCCN(CCCN)CCCN(CCCN)CCCCN(CCCN)CCCN(CCCN)CCCN [NPS 381, N^1,N^1,N^5,N^10,N^14,N^14-hexakis-(3-aminopropyl) spermine]
[1]
  effect on [Ca2+]i: mobilize intracellular Ca^2+

## CC1=C(C(=O)OC(C)C)[C@@H](c2cccc3nonc23)C([N+](=O)[O-])=C(C)N1 [(-) 202-791]
[1]; 1 μM
  effect on basal or extracellular Ca2+-evoked [Ca2+]i: None of the dihydropyridines tested

## CCCC(=O)N[C@@H](Cc1ccc(O)cc1)C(=O)NCCCCNCCCNCCCN [Philanthotoxin-433]
[1]; 500 μM
  effect on [Ca2+]i: without effect

## O=C(O)c1c2ccccc2cc2ccccc12 [Compound 9AC]
[2]
  effect on inward currents: blocks the currents

## NCCNCCNCCNCCN [Tetraethylenepentamine (TEPA), Tetraethylenepentamine]
[1]
  effect on [Ca2+]i: mobilize intracellular Ca^2+

## NCCCCCCCCCCCCN [1,12-diaminododecane (DADD), 1,12-diaminododecane]
[3]
  effect on [Ca2+]i: causes a prompt fall in [Ca^2+ ]i
  effect on extracellular Ca2+-elicited increases in [Ca2+]i: depresses steady-state, but not transient increases in [Ca^2+ ]i

## NCCCNCCCCNCCCNCCCN(O)CCCNC(=O)Cc1c[nH]c2ccccc12 [NPS 017]
[2]; BoPCaR 1-injected oocytes
  effect on Cl- current: caused oscillatory increases in the Cl^-
[2]; uninjected, water or rat liver mRNA oocytes
  effect in control oocytes: Neither NPS 017 nor NPS 019 elicited changes in Cl^-

## COC(=O)C1=C(C)NC(C)=C([N+](=O)[O-])C1c1ccccc1C(F)(F)F (stereo not shown) [BAY K 8644]
[1]; 1 μM
  effect on basal or extracellular Ca2+-evoked [Ca2+]i: None of the dihydropyridines tested

## CCC[C@@H]1C[C@@H](C(=O)N[C@@H]([C@H]2O[C@H](SC)[C@H](O)[C@@H](O)[C@H]2O)[C@@H](C)O)N(C)C1 [lincomycin]
[1]; 500 μM
  effect on [Ca2+]i: without effect

## CC(C)c1ccc([C@@H](C)N[C@H](C)c2cccc3ccccc23)cc1 [Compound 14L]
[1]; Table 8
  EC50: 0.26 µM

## CC(NCCCc1ccccc1)C1CCCCC1 (stereo not shown) [Compound 20V]
[1]; Table 7
  EC50: > 100 µM

## C[C@@H](NCc1ccc(C(C)(C)C)cc1)c1cccc2ccccc12 [Compound 15G]
[1]; Table 8
  EC50: ~0.5 µM

## CC(NCCCc1ccccc1)c1ccccc1 (stereo not shown) [Compound 1D]
[1]
  relative potency, in words: nearly as potent as the parent molecule

## COc1cccc(C(C)NCCC(c2ccccc2)c2ccccc2)c1 (racemic) [meta-Methoxyfendiline]
[1]
  relative potency, in words: as potent as NPS 467

## CC(N[C@H](C)c1ccccc1)c1ccc2ccccc2c1 (stereo partly shown) [Compound 4H]
[1]; Table 8
  EC50: ≥ 3 µM

## CNc1ccc2oc(C[C@H]3O[C@@]4(CC[C@H]3C)O[C@H]([C@H](C)C(=O)c3ccc[nH]3)[C@H](C)C[C@H]4C)nc2c1C(=O)O [Compound A23187]
[2]
  effect on inward currents: activated

## NC[C@H]1O[C@H](O[C@H]2[C@H](O)[C@@H](O[C@H]3O[C@H](CO)[C@@H](O)[C@H](N)[C@H]3O)[C@H](N)C[C@@H]2N)[C@H](O)[C@@H](O)[C@@H]1O [Kanamycin]
[1]; 500 μM
  effect on [Ca2+]i: without effect

## CCOC(=O)C1=C(C)NC(C)=C(C(=O)OC)C1c1cccc([N+](=O)[O-])c1 (stereo not shown) [nitrendipine]
[1]; 1 μM
  effect on basal or extracellular Ca2+-evoked [Ca2+]i: None of the dihydropyridines tested

## N=C(N)NCCC[C@H](N)C(=O)NCCCNCCCNCCCCCNC(=O)[C@H](CC(N)=O)NC(=O)Cc1ccc(O)cc1O [Argiotoxin-636]
[1]
  effect on response to extracellular Ca2+: did potentiate cytosolic Ca^2+
[1]; 400 μM
  effect on [Ca2+]i: did not elicit increases in [Ca^2+ ]
[1]; 100 to 300 μM
  effect on [Ca2+]i: had no effect

## COC(=O)C1=C(C)NC(C)=C(C(=O)OC)C1c1ccccc1[N+](=O)[O-] [nifedipine]
[1]
  effect on basal or extracellular Ca2+-evoked [Ca2+]i: None of the dihydropyridines tested

## CCN(CC)CCCCCCCCOC(=O)c1cc(OC)c(OC)c(OC)c1 [TMB-8]
[3]; 100 μM
  effect on influx of extracellular Ca2+: blocked the influx of extracellular Ca^2+
[1]
  mode of action at the calcium receptor: partial agonists or allosteric activators
  effect on mobilization elicited by extracellular divalent cations: potentiated the mobilization of intracellular Ca^2+; also recorded: potentiated transient increases in [Ca^2+ ]i
  effect on [Ca2+]i at low extracellular Ca2+: evoked no change

## COc1ccc(CCN(C)CCCC(C#N)(c2cc(OC)c(OC)c(OC)c2)C(C)C)cc1OC [Compound D-600]
[3]; 100 μM
  effect on influx of extracellular Ca2+: blocked the influx of extracellular Ca^2+
[1]
  mode of action at the calcium receptor: partial agonists or allosteric activators
  effect on mobilization elicited by extracellular divalent cations: potentiated the mobilization of intracellular Ca^2+
  effect on [Ca2+]i at low extracellular Ca2+: evoked no change

## CC1=C(C(=O)OC(C)C)[C@H](c2cccc3nonc23)C([N+](=O)[O-])=C(C)N1 [(+) 202-791]
[1]; 1 μM
  effect on basal or extracellular Ca2+-evoked [Ca2+]i: None of the dihydropyridines tested

## CC(N[C@H](C)c1ccccc1)c1cccc2ccccc12 (stereo partly shown) [Compound 4G]
[1]; Table 8
  EC50: 1.8 µM

## COc1ccc(CC(=O)NCCCCCCCCCCCCN)cc1OC [NPS 384]
[3]; 300 μM
  effect on influx of extracellular Ca2+: blocked influx of extracellular Ca^2+
[3]
  effect on [Ca2+]i: causes a prompt fall in [Ca^2+ ]i
  effect on extracellular Ca2+-elicited increases in [Ca2+]i: depresses steady-state, but not transient increases in [Ca^2+ ]i
[1]; NPS 384 300 μM
  effect on [Ca2+]i: did not evoke an increase in [Ca^2+ ]i; also recorded: fails to do so

Reference: patent US5962314A, “Calcium receptor-active molecules” (priority 1997, dated 1999)
